Experimental data published in patent US20020155422A1, “Methods for analyzing dynamic changes in cellular informatics and uses therefor” (priority 2000, published 2002).

Tested on: HL-60 cells
Assay: Gene expression profiling (Resgen microarray filters) of HL-60 cells stimulated to differentiate into neutrophils, time course
Format: cell-based, human
Conditions: for Normalized expression level of gene W95428 / Normalized expression level of gene W96205 / Normalized expression level of gene W96450 / Normalized expression level of gene W96463: HL-60 cells, retinoic acid induced switch, normalized to T = 0 level
Excerpt: Given the value of understanding the genetic basis of the switch between different hematopoietic stem cell lineages, a well-characterized human pluripotent precursor cell line—the HL 60 promyeloid leukemia cell line—provides a useful model system. HL 60 precursors cells can be induced to switch to granulocytes, monocytes, or macrophages based on alterations in experimental conditions. […] Established molecular methods (e.g., immunocytochemistry, FACS cell sorting, SDS-PAGE, Western blots, Northern blots, or other biochemical or molecular biological techniques) can be used to identify cells that have switched, between different phenotypes. These methods can be used to identify experimental conditions necessary to optimally acquire the baseline data for analysis according to methods of the invention, including information on the dose-response for the transition between different cell states and the time required for a stimulated cell to undergo the transition and reach a new steady state. Additional insight into the molecules involved in cell regulation may be gained by carrying out analysis of cells under various experimental conditions that induce forward and reverse transitions between the same two states by adding or removing a common stimulus as well as by analysis of convergent transition processes that involve switching to a common cell state using different stimuli and divergent transition process that involve switching from one state to two different attractor states using different perturbations. […] The latter would lead to a perturbation of the attractor state to various degrees with subsequent relaxation back to the same attractor along distinct trajectories.
Cell state transitions that may be studied and characterized in the HL60 model system include: A) induction of a transition from HL60 precursor to a granulocyteby treatment with DMSO; B) induction of a reverse transition from granulocyte to HL60 by removing DMSO; C) induction of a transition from HL60 precursor to granulocyte using all-trans-retinoid acid; D) induction of a reverse transition from granulocytes to HL60 precursors by removing all-trans-retinoid acid; E) induction of a transition from HL60 precursors to a monocyte(s) by addition of NaButyrate; and F) induction of a transition from HL60 precursors to a macrophage(s) by addition of TPA. This approach was used to analyze two convergent processes of HL-60 cell transition from precursor to neutrophil states after stimulation with DMSO and retinoic acid (transitions A and C, respectively). In this experiment, only a relatively low number of genes (<300) were analyzed over 7 time points.
HL-60 cells (1.5×10^6 cells/ml) were stimulated in parallel cultures to differentiate into neutrophils along two different but convergent paths by treatment with DMSO (S1 path) or retinoic acid (S2 path). At each time point, RNA was harvested from both cultures using RNeasy extraction kit (Qiagen) and subjected to gene expression profiling using Resgen microarray filters from Research Genetics/Invitrogen (the gene filter contains 5000 human cDNAs that were pre-spotted on a 5×7 cm nylon membrane and then hybridized with radioactively labeled cDNA made from total cellular RNA). […] Expression levels for each gene were normalized to the 0 time point level for that gene (untreated reference). Genes with expression levels below a 4 fold change relative to the 0 reference were excluded from the analysis. In this analysis, an inter-trajectory distance representation was used to compare different trajectories with the cell state space and to identify common paths in cell state transition processes. For each time point, a state vector of length 281 genes was defined for each of the two processes S1(t) and S2(t). […]

C[S+](C)[O-] [DMSO]
inter-trajectory distance DT(t) (squared Euclidean distance between state vectors S1(t), S2(t)) (HL-60 cells 1.5×10^6 cells/ml, DMSO (S1 path) versus retinoic acid (S2 path), 281 genes, 7 time points, FIG. 7): converge on the same differentiation state

CC1=C(/C=C/C(C)=C/C=C/C(C)=C/C(=O)O)C(C)(C)CCC1 [retinoic acid]
Normalized expression level of gene W95428 (2 hours): 1.049 | Normalized expression level of gene W96205 (2 hours): 0.9014 | Normalized expression level of gene W96450 (2 hours): 0.8141 | Normalized expression level of gene W96463 (2 hours): 0.9136 | Normalized expression level of gene W95428 (Day 2): 1.003 | Normalized expression level of gene W96205 (Day 2): 0.931 | Normalized expression level of gene W96450 (Day 2): 0.8573 | Normalized expression level of gene W96463 (Day 2): 0.9058 | Normalized expression level of gene W95428 (Day 3): 0.9532 | Normalized expression level of gene W96205 (Day 3): 0.9937 | Normalized expression level of gene W96450 (Day 3): 0.6712 | Normalized expression level of gene W96463 (Day 3): 0.8109 | Normalized expression level of gene W95428 (Day 4): 0.9982 | Normalized expression level of gene W96205 (Day 4): 0.9089 | Normalized expression level of gene W96450 (Day 4): 0.8387 | Normalized expression level of gene W96463 (Day 4): 0.8458 | Normalized expression level of gene W95428 (Day 5): 0.9605 | Normalized expression level of gene W96205 (Day 5): 0.9604 | Normalized expression level of gene W96450 (Day 5): 1.17 | Normalized expression level of gene W96463 (Day 5): 0.841 | Normalized expression level of gene W95428 (Day 7): 0.954 | Normalized expression level of gene W96205 (Day 7): 0.9732 | Normalized expression level of gene W96450 (Day 7): 1.087 | Normalized expression level of gene W96463 (Day 7): 0.8014
